Columns and labels:
in vivo [1] = settings: ICR, mouse, plasma, po, 10 mg/kg
in vivo [2] = settings: ICR, mouse, plasma, po, 10 mg/kg; remark: listed apart in the source
in vitro [3] = settings: human, liver microsomes
in vitro [4] = settings: rat, liver microsomes
in vitro [5] = settings: mouse, liver microsomes

| Structure (SMILES) | concentration at 1 h (in vivo [1]) | concentration at 4 h (in vivo [2]) | half-life at 1 h, 1 µM (in vitro [3]) | half-life at 1 h, 1 µM (in vitro [4]) | half-life at 1 h, 1 µM (in vitro [5]) |
| --- | --- | --- | --- | --- | --- |
| Cn1c(=O)n(CCCO)c(=O)c2c1nc(Oc1cccc(Cl)c1)n2Cc1ccc(Cl)cc1 | 802 ng/mL | 398 ng/mL | 117 min | 4 min | 12 min |
| Cn1c(=O)n(CCCO)c(=O)c2c1cc(C1CC1C1CCCC1)n2Cc1ccc(Cl)cc1 (stereo unspecified) |  |  | 12 min | 1 min | 4 min |
| Cn1c(=O)n(CCCO)c(=O)c2c1cc(/C=C/c1ccc(Cl)cc1)n2Cc1ccc(Cl)cc1 |  |  | 141 min | 40 min | 115 min |

Reference: ChEMBL document CHEMBL6153114, “Property-Based Design of Xanthine Derivatives as Potent and Orally Available TRPC4/5 Inhibitors for Depression and Anxiety” (J Med Chem, 2025)
